Assay results taken from patent publication US20250144039A1, “COMPOSITIONS COMPRISING SURFACE MODIFIED GLOBULAR NANO-PARTICLES” (LANDA LABS (2012) LTD., priority 2022, published 2025).

Columns and labels:
skin of pigs' ears = experiment: Ex vivo penetration of composition into skin of pigs' ears (fluorescent marker histology); assay type: in vitro ADME; settings: Nile red marker; pig ear skin, 20 hours at 32° C.
Description: The distribution of nano-elements of the present compositions in various skin layers was tested ex vivo by applying core-shell and core-multi-shells (including a second shell forming active agent) nano-elements onto the skin of pigs' ears, the cores of the tested compositions including a fluorescent dye (Nile red) allowing histological monitoring.
The following test and control compositions were prepared and used as set in Table 9.
Tested compositions (2) and (3) were prepared by adding 2 mg of Nile red fluorescent marker during the preparation of the CSSC/fatty amine premix, as described in Example 6. All tested compositions were stored in closed containers at room temperature until they were used.
The compositions were tested on three freshly harvested pig ears, collected on the same day, and kept fresh and cooled till use. The ears were washed with excess saline solution and wiped dry. They were then immobilized for the duration of the study by taping them onto a glass surface, their inner side facing down. Each ear was marked on its outer side with 6 circles having a diameter of about 1 cm. […]
The above tissue sections were evaluated by an expert for the presence and intensity of the marker using a fluorescence microscope at objective magnification of ×10 and ×20.

[1] = Zeta potential measurement (Malvern Zetasizer Nano ZS); assay type: physicochemical; settings: 0.1 g dispersed in 9.9 g of distilled water
Description: • Oven: DFO-240, by MRC, Israel • Thermo-rheometer: Thermo Scientific (Germany) Haake Mars III, with a C20/1° spindle, a gap of 0.052 mm, and a shear rate of 10 sec^−1 • Sonicator: VCX 750, by Sonics & Materials, USA • Dynamic Light Scattering and Zeta Potential measurement: Malvern Zetasizer Nano ZS, Malvern Instruments Ltd., UK • Conductivity meter: Eutech CON 700 by Thermo Fisher Scientific, USA • CryoTEM: Talos 200C by Thermo Fisher Scientific, USA, with a Lacey grid • Fluorescence microscope: BX60 microscope, equipped with a digital camera model DP73, by Olympus, Japan
8 g of double distilled water were placed in a 20 ml glass vial. 2 g of the nano-dispersion ND1 obtained in Example 2 were added, and the contents of the vial were shaken by hand for about 10 seconds until a homogeneous mixture was obtained (referred to as charged ND1 or cND1). Zeta potential of the mixture was measured by Malvern Zetasizer Nano ZS and found to be −14.7 mV. Unless otherwise stated, all measurements made with this instrument (e.g., zeta potential and particle size distribution) were performed on samples diluted 1:100 in double distilled water. All pH measurements reported in this and following examples were made at least using a pH test strip adapted to the pH range of relevance, and confirmed in some cases by using a suitable pH meter.

CCN(CC)c1ccc2nc3c4ccccc4c(=O)cc-3oc2c1 [Nile red, 9-(diethylamino)-5H-benzo[a]phenoxazin-5-one]
penetration into skin layers (fluorescence microscopy) (skin of pigs' ears): No penetration of the fluorescent marker was observed

Sodium hyaluronate [LMW HA]
Zeta potential of active agent alone [1]: −17 mV
